These results are taken from patent publication US7291492B2, “Histone deacetylase 9” (The Institute of Cancer Research, priority 2001, dated 2007).

The assay deals with GAL4 DBD-HDAC9 fusions. The note with it: 293T cells, GAL4-TK-Luc reporter; HDAC9, HDAC9ΔCD and HDAC9CD fusions. How it is done:
GAL4-Tk-Luc was transiently transfected into 293T cells together with 100 ng GAL4 DBD fusions. All Results were performed in duplicate […].
It has been previously established that HDACs repress transcription when tethered to DNA as Gal4 fusion proteins. […] A GAL4^uasx5-TK-Luciferase reporter gene was transiently transfected into 293T cells together with the expression vectors for the indicated GAL4 fusion proteins.

Regarding Trichostatin A, the “effect on the repressive effects of GAL4 DBD-HDAC9 fusions (reporter activity)” value is “partially relieved”.
